According to PubChem BioAssay AID844 (SRMLSC, 2007):
Activity calls are given as the source filed them. No rule for the calls is given here.

Tested on: MRP1 cells, doxorubicin viability shift, 10 uM compound
Assay: doxorubicin EC50 increase in MRP-1 cells, dose response, cell-based, doxorubicin EC50 shift (AID 844)
Details: for EC50: measured here: doxorubicin EC50 with compound

Structure (SMILES) | fold increase in Dox EC50 | EC50 [µM]
Cc1cc(/C=C2\SC(=S)NC2=O)c(C)n1C | 1.44 (inactive) | 7.78
CCOc1ccccc1NC(=O)c1cccc(NC(=O)CC(c2ccccc2)c2ccccc2)c1 | 1.2 (inactive) | 6.45
O=[N+]([O-])c1ccc(O)c(/C=N/n2cnc3ccccc32)c1 | 0.67 (inactive) | 3.61
CCn1c(SCc2ccc(Cl)cc2)nc2nc3c(cc2c1=O)CCCC3 | 0.77 (inactive) | 4.17
CCCOc1ccc(C(=O)Nc2ccc(N3CCN(C(C)=O)CC3)cc2)cc1 | 1.06 (inactive) | 5.75
O=C(c1ccc(COc2ccc(Br)cc2)o1)N1N=C(C(F)F)CC1(O)C(F)F (configuration not stated) | 1.06 (inactive) | 5.71
CSC1=NP(=S)(SC)N2CCCC2=C1C#N (configuration not stated) | 0.97 (inactive) | 5.24
O=C1CC(N2CCCN(C3CC(=O)N(c4ccc(F)cc4)C3=O)CC2)C(=O)N1c1ccc(F)cc1 (configuration not stated) | 1.17 (inactive) | 6.34
Cc1cccc(-c2cc3nc(C)cc(N4CC(C)CC(C)C4)n3n2)c1 (configuration not stated) | 0.49 (inactive) | 2.65
Nn1c(SCC(=O)Nc2ccccc2F)nc2ccccc2c1=O | 1.41 (inactive) | 7.59
O=C1CC(c2ccccc2)c2cc(O)ccc2O1 (configuration not stated) | 0.99 (inactive) | 5.35
Cc1cc(N2CCN(c3cccc(C)c3C)CC2)nc(-c2ccccc2)n1 | 0.99 (inactive) | 5.37
CCc1nnc(NC(=O)CCC(=O)N2CCN(Cc3ccc(Cl)cc3)CC2)s1 | 0.76 (inactive) | 4.09
N#Cc1nc(COc2ccc(F)cc2)oc1N1CCC(Cc2ccccc2)CC1 | 0.99 (inactive) | 5.35
COc1ccc(CNc2nc3c(c(=O)n(Cc4ccc(Br)cc4)c(=O)n3C)n2C)cc1 | 0.95 (inactive) | 5.13
COc1ccc(NC(=O)c2c(F)cccc2F)cc1S(=O)(=O)Nc1ccc(Br)cc1 | 0.71 (inactive) | 3.86
COc1ccccc1CNC(=O)Cn1cc2c(n1)CCCC2 | 1.66 | 8.94
CC(=O)c1ccc(NC(=O)CN2C(=O)/C(=C/C(C)=C/c3ccccc3)SC2=S)cc1 | 0.62 (inactive) | 3.36
CC(=O)N1CCN=C1SCc1ccccc1F | 0.78 (inactive) | 4.2

Structure (SMILES) | fold increase in Dox EC50 | EC50 [µM]
Oc1c(C(c2cccs2)N2CCN(c3cccc(Cl)c3)CC2)sc2ncnn12 (configuration not stated) | 0.68 (inactive) | 3.68
CCCN1C(=O)/C(=N\OCC(=O)NC23CC4CC(CC(C4)C2)C3)c2ccccc21 | 1.01 (inactive) | 5.43
CCn1c(C)c(C)c2cc(C(=O)Nc3cccc(Cl)c3)ccc21 | 0.43 (inactive) | 2.33
Cc1cc(C)cc(NC(=O)c2oc3ccccc3c2COc2ccccc2)c1 | 0.88 (inactive) | 4.78
CCc1nnc(NC(=O)c2ccc(S(=O)(=O)N3CCCCCC3)cc2)s1 | 0.9 (inactive) | 4.88
CC(=O)/C(C#N)=C1\NC(=O)C(Cc2ccc(C)c(C)c2)S1 (configuration not stated) | 1.19 (inactive) | 6.44
Cc1nc(=O)c(-c2ccccc2)c(C)n1-c1ccc(C(=O)O)cc1 | 1.3 (inactive) | 7.02
CSC1=NCCN1C(=O)Cc1ccc(Cl)cc1 | 1.04 (inactive) | 5.6
Cc1ccc(C(=O)CCC(=O)Nc2ccc(Cl)c(S(=O)(=O)Nc3cccc(Cl)c3)c2)cc1 | 1.15 (inactive) | 6.21
C=CCOc1c(CNc2ccc(C(=O)O)cc2)cccc1OCC | 0.59 (inactive) | 3.21
Cc1ccc(-c2cc(-c3ccccc3)no2)c(O)c1 | 0.59 (inactive) | 3.2
N#CC1=C2C=Cc3ccccc3N2CCCC1=O | 1.28 (inactive) | 6.9
CCN(CC)C(=O)C(=O)c1c(-c2ccccc2)[nH]c2ccccc12 | 2.22 | 12
CC(=O)Nc1ccc2[nH]c(C)c(CC=C(Cl)Cl)c(=O)c2c1 | 0.72 (inactive) | 3.87
O=C(Nc1ccn(Cc2c(F)c(F)cc(F)c2F)n1)c1ccc(COc2ccc(Cl)cc2Cl)o1 | 1.01 (inactive) | 5.45
c1ccc2c(c1)Nc1nccnc1S2 | 0.12 (inactive) | 0.637
O=C(Nc1nc(=O)n(C(=O)C2CC2)s1)c1ccccc1 | 0.55 (inactive) | 2.97
Cc1ccc(C(c2sc3ncnn3c2O)N2CC(C)CC(C)C2)cc1 (configuration not stated) | 0.72 (inactive) | 3.89
Oc1c(C(c2cccs2)N2CCN(c3ccccc3)CC2)sc2ncnn12 (configuration not stated) | 0.93 (inactive) | 5.02

Structure (SMILES) | fold increase in Dox EC50 | EC50 [µM]
CCN=c1scc(C)n1/N=C/c1ccc(O)c(O)c1O | 0.18 (inactive) | 0.985
COc1ccc(-n2ncc3c(N4CCCc5ccccc54)ncnc32)cc1 | 0.67 (inactive) | 3.62
CCOC(=O)N1CCN(C(=O)CSc2nnc(COc3ccc(Cl)cc3)o2)CC1 | 1.03 (inactive) | 5.55
Cc1cc(C)nc(NN2C(=O)/C(=C/c3ccc(O)cc3)SC2=S)n1 | 1.39 (inactive) | 7.51
O=C(COc1nsnc1N1CCOCC1)N/N=C/c1ccccc1O | 0.26 (inactive) | 1.39
Cc1ccsc1CNn1cnnc1SCc1ccc(Cl)cc1 | 0.78 (inactive) | 4.22
Cc1ccc(NC(=O)CNC(=O)c2cccs2)cc1S(=O)(=O)Nc1ccc(Cl)cc1 | 1.11 (inactive) | 5.97
COc1ncnc2c1oc1nc(CC(C)C)c3c(c12)CCCC3 | 0.66 (inactive) | 3.57
N#Cc1nc(COc2ccc(Br)cc2)oc1N1CCCC1 | 1.26 (inactive) | 6.8
Cc1nnc2sc(-c3ccncc3)nn12 | 0.8 (inactive) | 4.31
CCn1c(C)cc(/C=C2\NC(=O)N(Cc3ccc(Cl)cc3)C2=O)c1C | 1.14 (inactive) | 6.15
CCOC(=O)c1ccc(Oc2nc(NC(C)(C)C)nc(N(C)C)n2)cc1 | 0.82 (inactive) | 4.43
CCOc1ccccc1C(=O)OCC(=O)Nc1ccc(OC(F)F)cc1 | 0.93 (inactive) | 5.04
C=CCSC1=NC(=O)/C(=C/c2cccs2)S1 | 1.13 (inactive) | 6.1
COC(=O)c1ccc(NC(=O)C(=O)N2CCN(C(=S)Nc3cccc(OC)c3)CC2)cc1 | 1.28 (inactive) | 6.93
O=C(CC(c1ccccc1)c1ccccc1)Nc1ncn[nH]1 | 0.75 (inactive) | 4.03
CN(Cc1ccccc1)c1oc(COc2ccccc2F)nc1C#N | 0.66 (inactive) | 3.56
Cc1ccc(-n2c(C)nnc2SCC(=O)Nc2ccccc2)cc1 | 1 (inactive) | 5.41
